Results reported in a melting point compilation (Tetko et al.; mined from patent text by program, amines drawn as free bases though some values may be those of a salt).

SMILES	melting point [°C]
COC(=O)C(Oc1cc(OCc2ccsc2)ccc1C#N)c1ccccc1C (racemic)	102 to 104
CC(C(=O)C=Cc1ccc(Cl)cc1)n1cncn1 (configuration not stated)	115 to 116
COc1ccc(C(=O)Nc2ccc(F)c(F)c2)cc1NCc1ccccc1	176 to 178
COc1cc(Nc2nccc(-c3ccc(N4CCN(C)[C@@H](C)C4)nc3)n2)cc(OC)c1OC	92 to 93
CCCCCCc1cnc(-c2ccc(CCCCC)c(F)c2)nc1	30
CC=CCn1c(C)c(C)c2cnnc(OCc3ccc(F)cc3F)c21	93 to 95
NC(=O)c1cn(C(CO)COc2ccccc2)cn1 (configuration not stated)	148 to 150
COC(=O)CCCNC(=O)C[C@H]1O[C@H](c2cccc(OC)c2OC)c2cc(Cl)ccc2N(CC(C)(C)CO)C1=O	78 to 80
COC(=O)COc1coc2ccccc2c1=O	114 to 116
CCC(C)(CC)C(=O)N[C@H]1C[C@@H]2c3cccc4[nH]c(C)c(c34)C[C@H]2N(C)C1	191 to 192
COc1cc2c(c(-c3cccc(C)c3C)c1)OC(CN)C2 (configuration not stated)	129 to 130
OC[C@H]1O[C@@H](n2cnc3c(NC4CCOC4)ncnc32)[C@@H](O)[C@H]1O (some centres not stated)	128 to 130
O=c1[nH]c2c(c(=O)n1CCCN1CCN(c3ccccc3OCC(F)(F)F)CC1)CCCC2	148 to 150
CC(CC(=O)O)(c1ccc(OCc2ccc3ccccc3n2)cc1)c1ccc(OCc2ccc3ccccc3n2)cc1	94 to 96
CC(C)C[C@H](NC(=O)c1ccc2c(c1)Nc1ccccc1S2)C(=O)N[C@H]1CCOC1OC(=O)N1CCOCC1 (some centres not stated)	165 to 167
Nc1nn(-c2ccccc2)cc1C=O	129 to 130
C1=CNc2c(ccc3ncccc23)C=N1	169 to 171
Cc1c(O)c(O)cc2ccccc12	97 to 100
Cc1oc(-c2ccccc2)nc1COc1cccc(CON)c1	81 to 82
COc1cc(OCCOC(C)C)cc2nc(-c3cc(C)nc(C)c3)[nH]c(=O)c12	188 to 189
O=C1O[C@@H]2C[C@@]1(O)c1cc(Cc3ccccc3)sc1[C@H]2O	116 to 118
CCOc1cc2c(cc1OCC)C1CC(=O)C(CC)CN1CC2 (configuration not stated)	115 to 118
O=C(OCC1c2ccccc2-c2ccccc21)N1CCC(n2nc(-c3ccccc3)[nH]c2=O)CC1	142
FC(F)Oc1cnnc(-c2cccc(C(F)(F)F)c2)c1	70 to 72
OC1(c2ccc(Cl)c(Cl)c2)CCN(CCCOc2ccc(Cl)c(Cl)c2)CC1	118

SMILES	melting point [°C]
Clc1cc(Cl)n2c(-c3ccccc3)nc(Cl)c2n1	133 to 134
O=[N+]([O-])c1cccc2[nH]ncc12	172 to 174
CC(=O)c1c(Nc2ccccc2)n[nH]c1C	246 to 247
COc1cccc([C@H]2O[C@H](CC(=O)Nc3cc(CCC(=O)O)ccc3OCCCc3ccccc3)C(=O)N(CC(C)(C)CO)c3ccc(Cl)cc32)c1OC	162 to 165
C[C@@H](n1cnc2cc(Cl)ccc2c1=O)[C@](O)(Cn1cncn1)c1ccccc1F	124 to 129
COc1cc(OC)nc(NC(=O)NS(=O)(=O)Nn2cccc2C(=O)C(F)(F)F)n1	145 to 147
O=c1[nH]c2cccnc2n1CCCO	145 to 148
CC(C)(C)OC(=O)CC1=CCC(=O)Nc2ccccc21	136 to 138
COc1cc(S(N)(=O)=O)cc(C(=O)Cl)c1OC	153
CN=C1SCC(O)(c2ccc(Cl)c(S(=O)(=O)NCC(C)OC)c2)N1C (configuration not stated)	148
Cc1cc2nc(/C=C/c3ccccc3)n(-c3ccccn3)c2cc1C	136 to 137
Cc1c(Cl)c(Oc2c(Cl)cc(C(F)(F)F)cc2Cl)nn1C(=O)NC(C)C	109 to 111
COc1ccc(C2(c3ccc(OC)cc3)CCN(C[C@@H]3C=C4c5cccc6[nH]c(Cl)c(c56)C[C@H]4N(C)C3)CC2)cc1	> 204
CCOC(=O)c1ccc(O)c(-n2cc3c(c2-c2ccccc2)c(=O)n(C)c(=O)n3C)c1	129 to 130
CCOC(=O)c1ccnn1-c1c(Cl)cccc1Cl	51 to 53
C[C@@](O)(C(=O)Nc1ccc(S(=O)(=O)c2ccccc2F)cc1Cl)C(F)(F)F	90 to 92
c1ccc(CN(c2ccccc2)c2ccc(N(Cc3ccccc3)c3ccccc3)cc2)cc1	149 to 151
CC(C)(C)NC(=O)Nc1nc2nc(N)ncc2cc1-c1c(F)cccc1F	> 300
CC(=O)Oc1cc(Cl)ccc1C1(OC(C)=O)C(=O)c2ccccc2C1=O	148 to 150
Cc1oc(-c2ccccc2)nc1CNC(=O)c1ccc(Cn2cc(CCC(=O)O)c(-c3ccccc3)n2)cc1	177 to 178
O=c1ccn(-c2ccccc2C(F)(F)F)nc1-c1ccnn1-c1ccccc1	145 to 146
Cc1cc(=O)c(-c2ccc(Cl)cc2)c(C)n1C	221 to 222
Cc1nn(-c2ccccn2)c2ncc(C(=O)O)c(O)c12	248 to 251
CCOC(=O)c1c(OCc2ccc(-c3ccccc3-c3nnn(C(c4ccccc4)(c4ccccc4)c4ccccc4)n3)cc2)cc(C)nc1C	136 to 138
CCC(c1ccc(-c2ccc(Cl)cc2)cc1)N1CCNCC1 (configuration not stated)	95 to 97

SMILES	melting point [°C]
N#Cc1c(Cl)[nH]c(-c2ccc(Cl)s2)c1Br	> 200
CCNC(CO)Cc1cc(OC)cc(OC)c1 (configuration not stated)	82 to 83
Cc1ccc(S(N)(=O)=O)cc1NC(=O)c1cnn2c(C(F)F)cc(-c3ccc(C(F)(F)F)cc3)nc12	293
CCCCC[C@H]1CC[C@H](c2ccc(-c3ccc(CCc4ccc(OCC)cc4)cc3)cc2F)CC1	133
O=C1CCCC2=C1C(c1cccc(Cl)c1)C1=C(CCCC1)N2 (configuration not stated)	249 to 250
Cc1oc(-c2ccco2)nc1COc1ccc(COc2nn(Cc3ccc(OCc4nc(-c5ccco5)oc4C)cc3)cc2C=O)cc1	109 to 110
Cc1ccccc1S(=O)(=O)NC(=O)c1csc(Cc2ccc3oc(-c4nc(C(C)(C)C)cs4)cc3c2)n1	201 to 203
CC(=O)Nc1ccc(-c2ccc(C(=O)O)c(=O)[nH]2)cc1	> 260
CCCCCCC(CCC(=O)O)CC(=O)O (configuration not stated)	70 to 71
CN1CCC(O)(c2ccccc2[N+](=O)[O-])CC1	166 to 167
COCOCc1cc(-c2ccc(C(=O)O)cc2)cc(-c2ccc3c(c2)C(C)(C)CCC3(C)C)c1	88
NC(=O)O[C@@](c1cc(F)cc(Cl)c1)(c1cc2cn[nH]c2cc1F)[C@@H]1CCCCN1	220
CCOC(=O)C1Cc2cc(OC)c(OC)cc2C1=O (configuration not stated)	140 to 141
CSc1cc2c(cc1C(F)(F)F)N(C(=O)Nc1ccc(C(=O)Nc3ccncc3)cc1)CC2	158 to 160
Cc1[nH]n(Cc2cccc(C(N)=O)c2)c2nc(-c3ccncc3)nc(=O)c1-2	> 300
COc1cnc(CSc2nc3cc(OCC(F)(F)F)ccc3[nH]2)cc1OC	55 to 57
COC(=O)c1cc(N=[N+]=[N-])ccc1Nc1ccccc1	64 to 65
O=[N+]([O-])c1ccccc1N=Nc1ccccc1	139 to 141
COc1ccc(Cn2cnc3c(-c4ccco4)nc(Cl)nc32)cc1C	177 to 179
O=C(NCc1cccs1)C1(c2ccc(Cl)cc2)CCCC1	119 to 120
CCCCCCCc1nc(-c2ccccc2)c(-c2ccccc2)n1CCCCCCCC(=O)O	75 to 76
CCOc1cc(OCCCc2cn(-c3ccc(C(F)(F)F)cn3)nc2OC(C)C)ccc1CCC(=O)O	128 to 129
COC(=O)c1ccc(-c2nc3cc([N+](=O)[O-])c([N+](=O)[O-])cc3[nH]2)cc1	239 to 240
O=C(c1cn(-c2cccc(-c3ccccc3)c2)cn1)n1cccn1	124 to 127
CC(=O)O[C@@H](C)C(=O)Nc1c(C(=O)c2cc(C)ccn2)[nH]c2cc(Cl)ccc12	213 to 214

SMILES	melting point [°C]
O=C(O)Cc1c(C(=O)c2cccs2)[nH]c2cc(Cl)ccc12	177 to 178
Nc1cccnc1Nc1ccccc1C(=O)c1ccccc1	91 to 93
O=C(Nc1ccc(C2CN(C(=O)OCc3ccccc3)C2)c(F)c1)OCc1ccccc1	95
COC(=O)C1C(c2ccc(F)c(C)c2)=CCCC1(C)C (configuration not stated)	136 to 138
COc1ccc(C[C@H](NC(=O)OC(C)(C)C)C(=O)c2ccc(O)cc2)cc1	133 to 135
COC1=CC=C2C(=CCC(C)(c3ccc(OC)cc3)C2CCCCCCO)C1 (configuration not stated)	76 to 83
O=C(O)c1cc(Br)cc(OCc2ccccc2Cl)c1OCc1ccccc1Cl	186 to 187
Nc1ncnc2c1c(-c1ccc(Oc3ccccc3)cc1)c(Br)n2C1CCOC1 (configuration not stated)	205 to 206
CCCC(C=NNC(=O)OC)c1ccc(Cl)cc1Cl (configuration not stated)	165 to 166
COC(=O)c1sc2ccccc2c1N=CN(C)C	73 to 74
COC(=O)C(C)(C)OCc1cc2cc(C(F)(F)F)ccc2n1S(=O)(=O)c1ccc2c(c1)OCCO2	128 to 130
CCC1CC(=O)N(CCc2ccc(NC(=O)c3cccs3)cc2)N=C1c1ccc(OC)c(OC)c1 (configuration not stated)	186
N#CC(CC(=O)c1ccc(Cl)cc1)C(N)=O (configuration not stated)	160 to 161
NC(Cc1c[nH]c2c(Br)cccc12)C(=O)O (configuration not stated)	> 260
Cc1c(N2CCN(C(=O)OC(C)(C)C)CC2)nn2c(-c3ccncc3)c(-c3ccc(F)cc3)nc2c1C	231 to 233
Cc1ccc(C(=O)O)c(S(C)(=O)=O)c1	174
O=C(COc1cccc(-n2nc(-c3ccc(F)cc3)c3cccnc32)c1)NCCO	161 to 163
COC(=O)c1ccc(-c2ccc(C(CC3CCOCC3)c3ccc(S(=O)(=O)C4CC4)cc3)[nH]2)nc1 (configuration not stated)	150 to 152
O=C1c2cnc3[nH]ncc3c2C(=O)N1CCc1ccccc1	237 to 239
O=C(NC(CN1CCC(=C2c3ccccc3CCc3ccccc32)CC1)C(=O)O)OCc1ccccc1 (configuration not stated)	150 to 152
CC(C)(C)c1cc([PH](=O)O)cc(C(C)(C)C)c1O	106 to 111
O=C(O)C(=O)c1cn(Cc2ccc(F)cc2)c2ccc(-c3ccc(OC(F)(F)F)cc3)cc12	158 to 159
